Values of other authors in PubChem BioAssay AID1259410 (Chemical Carcinogenesis Research Information System (CCRIS), 2018).

Tested on: rodent tumor promotion studies, tumor incidence
Assay: CCRIS tumor promotion studies

## CCCCCCCCCCCCCC(=O)O[C@@H]1[C@@H](C)[C@@]2(O)[C@@H](C=C(CO)C[C@]3(O)C(=O)C(C)=C[C@@H]23)[C@@H]2C(C)(C)[C@]12OC(C)=O
Carcinogen: 7,12-DIMETHYLBENZ(A)ANTHRACENE, Doses [Carcinogen]: IG TO MOTHERS, Route [Carcinogen]: GAVAGE, Route [Promoter]: DERMAL, Species: MOUSE, Strain/Sex: NMRI/MALE,FEMALE
  outcome: integumentary system (skin); forestomach; stomach; liver; lung; colon; kidney; r
Carcinogen: 7,12-DIMETHYLBENZ(A)ANTHRACENE, Doses [Carcinogen]: IG, Route [Carcinogen]: GAVAGE, Route [Promoter]: GAVAGE, Species: MOUSE, Strain/Sex: FEMALE
  outcome: forestomach
Carcinogen: 7,12-DIMETHYLBENZ(A)ANTHRACENE, Doses [Carcinogen]: TOP, Route [Carcinogen]: DERMAL, Route [Promoter]: DERMAL, Species: MOUSE, Strain/Sex: MALE,FEMALE
  outcome: integumentary system (skin)
Carcinogen: 7,12-DIMETHYLBENZ(A)ANTHRACENE, Doses [Carcinogen]: TRANS-PLACENTAL, Route [Carcinogen]: TRANS-PLACENTAL, Route [Promoter]: DERMAL, Species: MOUSE, Strain/Sex: NMRI/MALE,FEMALE
  outcome: integumentary system (skin); lung; liver
Carcinogen: 7,12-DIMETHYLBENZO[K]FLUORANTHENE, 95741-56-3, Doses [Carcinogen]: 4 UMOL (TOTAL DOSE) ADMINISTERED IN 10 SUBDOSES 1/2 D, Doses [Promoter]: 2.5 UG IN 0.1 ML ACETONE 3/WK FOR 30 WK BEGINNING 10 D POST CARCINOGEN TREATMENT (STUDY DURATION: 33 WK), Route [Carcinogen]: DERMAL, Route [Promoter]: DERMAL, Species: MOUSE, Strain/Sex: CRL:CD-1/FEMALE
  outcome: skin: tumor
Carcinogen: 7,12-DIMETHYLBENZ[A]ANTHRACENE-3,4-DIOL, 71964-72-2, Doses [Carcinogen]: 4, 10 NMOL ONCE, Doses [Promoter]: 0, 3.4 NMOL 2/WK FOR 19 WK BEGINNING 2 WK POST CARCINOGEN DOSE (STUDY DURATION: 21 WK), Route [Carcinogen]: DERMAL, Route [Promoter]: DERMAL, Species: MOUSE, Strain/Sex: SENCAR/FEMALE
  outcome: skin: papilloma
Carcinogen: 7,12-DIMETHYLBENZ[A]ANTHRACENE, 57-97-6, Doses [Carcinogen]: 1 NMOL IN 100 µL ACETONE, Doses [Promoter]: 2.16 NMOL IN 100 µL ACETONE 2/WK FOR 27 WK BEGINNING 1 WK POST CARCINOGEN DOSE (STUDY DURATION: 28 WK), Route [Carcinogen]: DERMAL, Route [Promoter]: DERMAL, Species: MOUSE, Strain/Sex: SENCAR/FEMALE
  outcome: skin: tumor
Carcinogen: 7,12-DIMETHYLBENZ[A]ANTHRACENE, 57-97-6, Doses [Carcinogen]: 4, 20, 100 NMOL IN 100 µL ACETONE ONCE, Doses [Carcinogen]: 4, 20, 100 NMOL IN 100 µL ACETONE ONCE, Doses [Promoter]: 3.24 NMOL/100 µL ACETONE 2/WK BEGINNING 2 WK POST CARCINOGEN DOSE AND CONTINUING FOR 24 WK (STUDY DURATION: 27 WK), Route [Carcinogen]: DERMAL, Route [Promoter]: DERMAL, Species: MOUSE, Strain/Sex: SENCAR/FEMALE
  outcome: skin: tumor
Carcinogen: 7,12-DIMETHYLBENZ[A]ANTHRACENE, 57-97-6, Doses [Carcinogen]: 10 NMOL APPLIED TO BACK ONCE, Doses [Promoter]: 1.5 NMOL 2/WK FOR 19 WK BEGINNING 1 WK POST CARCINOGEN DOSE (STUDY DURATION: 40 WK), Route [Carcinogen]: DERMAL, Route [Promoter]: DERMAL, Species: MOUSE, Strain/Sex: HRA/SKH/FEMALE
  outcome: skin: papilloma
Carcinogen: 7,12-DIMETHYLBENZ[A]ANTHRACENE, 57-97-6, Doses [Carcinogen]: 20 NMOL IN ACETONE ONCE, Doses [Promoter]: 0, 0.2 ML OF 10 UG/ML SOLUTION IN ACETONE 2/WK FOR 51 WK (STUDY DURATION: 52 WK), Route [Carcinogen]: DERMAL, Route [Promoter]: DERMAL, Species: MOUSE, Strain/Sex: SENCAR/FEMALE
  outcome: skin: squamous cell carcinoma
Carcinogen: 7,12-DIMETHYLBENZ[A]ANTHRACENE, 57-97-6, Doses [Carcinogen]: 20 NMOL ONCE, Doses [Promoter]: 0, 1, 2, 5 UG IN 200 µL ACETONE 2/WK FOR 23 WK BEGINNING 1 WK POST CARCINOGEN DOSE (STUDY DURATION: 24 WK), Doses [Promoter]: 0, 1, 2, 5 UG IN 200 µL ACETONE 2/WK FOR 23 WK BEGINNING 1 WK POST CARCINOGEN DOSE (STUDY DURATION: 24 WK), Route [Carcinogen]: DERMAL, Route [Promoter]: DERMAL, Species: MOUSE, Strain/Sex: 129/SVEV/FEMALE
  outcome: skin: tumor
Carcinogen: 7,12-DIMETHYLBENZ[A]ANTHRACENE, 57-97-6, Doses [Carcinogen]: 100 NMOL ONCE, Doses [Promoter]: 0, 1, 2, 5 UG IN 200 µL ACETONE 2/WK FOR 23 WK BEGINNING 1 WK POST CARCINOGEN DOSE (STUDY DURATION: 24 WK), Doses [Promoter]: 0, 1, 2, 5 UG IN 200 µL ACETONE 2/WK FOR 23 WK BEGINNING 1 WK POST CARCINOGEN DOSE (STUDY DURATION: 24 WK), Route [Carcinogen]: DERMAL, Route [Promoter]: DERMAL, Species: MOUSE, Strain/Sex: 129/SVEV/FEMALE
  outcome: skin: tumor
Carcinogen: 7,12-DIMETHYLBENZ[A]ANTHRACENE, 57-97-6, Doses [Carcinogen]: 100 NMOL ONCE, Doses [Promoter]: 10 NMOL 2/WK FOR 24 WK BEGINNING 1 WK POST CARCINOGEN DOSE (STUDY DURATION: 25 WK), Route [Carcinogen]: DERMAL, Route [Promoter]: DERMAL, Species: NMRI/FEMALE G, Strain/Sex: NMRI/FEMALE
  outcome: skin: tumor
Carcinogen: 7,12-DIMETHYLBENZ[A]ANTHRACENE, 57-97-6, Doses [Carcinogen]: 200 NMOL IN 100 µL ACETONE ONCE, Doses [Promoter]: 0, 5 NMOL IN 100 µL ACETONE 2/WK FOR 20 WK BEGINNING 1 WK POST CARCINOGEN DOSE (STUDY DURATION: 21 WK), Route [Carcinogen]: DERMAL, Route [Promoter]: DERMAL, Species: MOUSE, Strain/Sex: CD-1/FEMALE
  outcome: skin: papilloma
Carcinogen: 7-FLUOROBENZO[B]FLUORANTHENE, 89883-22-7, Doses [Carcinogen]: 10, 40, 120, 400 NMOL (TOTAL DOSE) APPLIED 1/2 D FOR 10 SUBDOSES, Doses [Carcinogen]: 10, 40, 120, 400 NMOL (TOTAL DOSE) APPLIED 1/2 D FOR 10 SUBDOSES, Doses [Promoter]: 0, 2.5 UG IN 100 µL ACETONE 3/WK FOR 20 WK BEGINNING 10 D POST CARCINOGEN TREATMENT (STUDY DURATION: 22 WK), Route [Carcinogen]: DERMAL, Route [Promoter]: DERMAL, Species: MOUSE, Strain/Sex: CRL:CD-1/FEMALE
  outcome: skin: tumor
Carcinogen: 7-METHYLBENZ[A]ANTHRACENE-3,4-DIOL, 175614-82-1, Doses [Carcinogen]: 200, 400 NMOL ONCE, Doses [Promoter]: 0, 3.4 NMOL 2/WK FOR 19 WK BEGINNING 2 WK POST CARCINOGEN DOSE (STUDY DURATION: 21 WK), Route [Carcinogen]: DERMAL, Route [Promoter]: DERMAL, Species: MOUSE, Strain/Sex: SENCAR/FEMALE
  outcome: skin: papilloma
Carcinogen: 8-METHYLBENZO[K]FLUORANTHENE, 95741-54-1, Doses [Carcinogen]: 4 UMOL (TOTAL DOSE) ADMINISTERED IN 10 SUBDOSES 1/2 D, Doses [Promoter]: 2.5 UG IN 0.1 ML ACETONE 3/WK FOR 30 WK BEGINNING 10 D POST CARCINOGEN TREATMENT (STUDY DURATION: 33 WK), Route [Carcinogen]: DERMAL, Route [Promoter]: DERMAL, Species: MOUSE, Strain/Sex: CRL:CD-1/FEMALE
  outcome: skin: tumor
Carcinogen: 9-FLUORO-7,12-DIMETHYLBENZ[A]ANTHRACENE-3,4-DIOL, 175614-88-7, Doses [Carcinogen]: 4, 10 NMOL ONCE, Doses [Promoter]: 0, 3.4 NMOL 2/WK FOR 19 WK BEGINNING 2 WK POST CARCINOGEN DOSE (STUDY DURATION: 21 WK), Route [Carcinogen]: DERMAL, Route [Promoter]: DERMAL, Species: MOUSE, Strain/Sex: SENCAR/FEMALE
  outcome: skin: papilloma
Carcinogen: 9-FLUORO-7-METHYLBENZ[A]ANTHRACENE-3,4-DIOL, 175614-83-2, Doses [Carcinogen]: 200, 400 NMOL ONCE, Doses [Promoter]: 0, 3.4 NMOL 2/WK FOR 19 WK BEGINNING 2 WK POST CARCINOGEN DOSE (STUDY DURATION: 21 WK), Route [Carcinogen]: DERMAL, Route [Promoter]: DERMAL, Species: MOUSE, Strain/Sex: SENCAR/FEMALE
  outcome: skin: papilloma
Carcinogen: 9-FLUORO-12-METHYLBENZ[A]ANTHRACENE-3,4-DIOL, 175614-86-5, Doses [Carcinogen]: 200, 400 NMOL ONCE, Doses [Promoter]: 0, 3.4 NMOL 2/WK FOR 19 WK BEGINNING 2 WK POST CARCINOGEN DOSE (STUDY DURATION: 21 WK), Route [Carcinogen]: DERMAL, Route [Promoter]: DERMAL, Species: MOUSE, Strain/Sex: SENCAR/FEMALE
  outcome: skin: papilloma
Carcinogen: 9-METHYLBENZO[K]FLUORANTHENE, 95741-55-2, Doses [Carcinogen]: 4 UMOL (TOTAL DOSE) ADMINISTERED IN 10 SUBDOSES 1/2 D, Doses [Promoter]: 2.5 UG IN 0.1 ML ACETONE 3/WK FOR 30 WK BEGINNING 10 D POST CARCINOGEN TREATMENT (STUDY DURATION: 33 WK), Route [Carcinogen]: DERMAL, Route [Promoter]: DERMAL, Species: MOUSE, Strain/Sex: CRL:CD-1/FEMALE
  outcome: skin: tumor
Carcinogen: 10-FLUORO-7,12-DIMETHYLBENZ[A]ANTHRACENE-3,4-DIOL, 175614-89-8, Doses [Carcinogen]: 4, 10 NMOL ONCE, Doses [Promoter]: 0, 3.4 NMOL 2/WK FOR 19 WK BEGINNING 2 WK POST CARCINOGEN DOSE (STUDY DURATION: 21 WK), Route [Carcinogen]: DERMAL, Route [Promoter]: DERMAL, Species: MOUSE, Strain/Sex: SENCAR/FEMALE
  outcome: skin: papilloma
Carcinogen: 10-FLUORO-7-METHYLBENZ[A]ANTHRACENE-3,4-DIOL, 175614-84-3, Doses [Carcinogen]: 200, 400 NMOL ONCE, Doses [Promoter]: 0, 3.4 NMOL 2/WK FOR 19 WK BEGINNING 2 WK POST CARCINOGEN DOSE (STUDY DURATION: 21 WK), Route [Carcinogen]: DERMAL, Route [Promoter]: DERMAL, Species: MOUSE, Strain/Sex: SENCAR/FEMALE
  outcome: skin: papilloma
Carcinogen: 10-FLUORO-12-METHYLBENZ[A]ANTHRACENE-3,4-DIOL, 175614-87-6, Doses [Carcinogen]: 200, 400 NMOL ONCE, Doses [Promoter]: 0, 3.4 NMOL 2/WK FOR 19 WK BEGINNING 2 WK POST CARCINOGEN DOSE (STUDY DURATION: 21 WK), Route [Carcinogen]: DERMAL, Route [Promoter]: DERMAL, Species: MOUSE, Strain/Sex: SENCAR/FEMALE
  outcome: skin: papilloma
Carcinogen: 10-FLUOROBENZO[J]FLUORANTHENE, 129286-37-9, Doses [Carcinogen]: 1, 2 UMOL (TOTAL DOSE) ADMINISTERED IN SUBDOSES 1/2 D, Doses [Promoter]: 2.5 UG IN 100 µL ACETONE 3/WK FOR 20 WK BEGINNING 10 D POST LAST CARCINOGEN DOSE (STUDY DURATION: 27 WK), Route [Carcinogen]: DERMAL, Route [Promoter]: DERMAL, Species: MOUSE, Strain/Sex: CD-1/FEMALE
  outcome: skin: tumor
Carcinogen: 12-METHYLBENZ[A]ANTHRACENE-3,4-DIOL, 175614-85-4, Doses [Carcinogen]: 200, 400 NMOL ONCE, Doses [Promoter]: 0, 3.4 NMOL 2/WK FOR 19 WK BEGINNING 2 WK POST CARCINOGEN DOSE (STUDY DURATION: 21 WK), Route [Carcinogen]: DERMAL, Route [Promoter]: DERMAL, Species: MOUSE, Strain/Sex: SENCAR/FEMALE
  outcome: skin: papilloma
